ChEMBL document CHEMBL4261582, “Natural products as inhibitors of Leishmania major dihydroorotate dehydrogenase” (Eur J Med Chem, 2018)

Tests used:
[1] = system: Leishmania amazonensis; assay: Antileishmanial activity against Leishmania amazonensis MHOM/77BR/LTB0016 amastigotes infected in mouse peritoneal macrophages after 48 hrs by Giemsa staining-based assay; type: functional, organism-based; details: MHOM/77BR/LTB0016, 48 h
[2] = system: Trypanosoma brucei rhodesiense; assay: Antitrypanosomal activity against Trypanosoma brucei rhodesiense STIB 900 trypomastigotes after 72 hrs by Alamar Blue assay; type: functional, organism-based; details: STIB 900, 72 h
[3] = system: Leishmania donovani; assay: Antileishmanial activity against Leishmania donovani MHOM/ET/67/L82 amastigotes after 72 hrs by Alamar Blue assay; type: functional, organism-based; details: MHOM/ET/67/L82, 72 h
[4] = system: Trypanosoma cruzi; assay: Antitrypanosomal activity against Trypanosoma cruzi Tulahuen C2C4 trypomastigotes infected in rat skeletal myoblasts L-6 cells after 96 hrs by CPRG/Nonidet reagent based spectrophotometric method; type: functional, organism-based; details: Tulahuen C2C4, L6, 96 h
[5] = target: T1, Dihydroorotate dehydrogenase (fumarate) (Leishmania major, UniProt Q4QEW7); assay: Inhibition of recombinant oligo-histidine-tagged Leishmania major DHODH expressed in Escherichia coli BL21(DE3) cells using DHO as substrate measured after 60 secs; details: read-out: IC50
T1 sequence (Q4QEW7 whole entry): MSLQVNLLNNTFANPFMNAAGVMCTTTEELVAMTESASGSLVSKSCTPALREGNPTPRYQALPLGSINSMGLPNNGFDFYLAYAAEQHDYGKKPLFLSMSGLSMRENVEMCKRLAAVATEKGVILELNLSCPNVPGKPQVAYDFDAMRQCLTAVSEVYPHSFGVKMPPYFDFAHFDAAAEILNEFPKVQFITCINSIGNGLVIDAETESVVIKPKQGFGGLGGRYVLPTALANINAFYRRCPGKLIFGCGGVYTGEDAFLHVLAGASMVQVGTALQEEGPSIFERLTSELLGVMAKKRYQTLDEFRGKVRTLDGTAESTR

[6] = system: Leishmania amazonensis; assay: Antileishmanial activity against Leishmania amazonensis MHOM/77BR/LTB0016 promastigotes after 72 hrs by MTT assay; type: functional, organism-based; details: MHOM/77BR/LTB0016, 72 h
[7] = target: Dihydroorotate dehydrogenase (quinone), mitochondrial (Homo sapiens) (UniProt Q02127); assay: Inhibition of human DHODH at 100 uM
Sequence of Dihydroorotate dehydrogenase (quinone), mitochondrial (Homo sapiens) (Q02127 whole entry): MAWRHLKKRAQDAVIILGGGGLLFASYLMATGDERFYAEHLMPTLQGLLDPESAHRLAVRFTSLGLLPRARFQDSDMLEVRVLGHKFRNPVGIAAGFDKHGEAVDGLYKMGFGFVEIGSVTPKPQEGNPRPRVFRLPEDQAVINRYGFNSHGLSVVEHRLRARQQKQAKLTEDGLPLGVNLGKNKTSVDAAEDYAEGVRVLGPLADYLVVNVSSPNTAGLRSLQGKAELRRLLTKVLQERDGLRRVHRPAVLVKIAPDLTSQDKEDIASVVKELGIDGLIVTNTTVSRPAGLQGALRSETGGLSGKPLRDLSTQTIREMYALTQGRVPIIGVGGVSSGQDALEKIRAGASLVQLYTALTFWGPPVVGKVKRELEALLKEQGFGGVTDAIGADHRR

[8] = target: T2, Dihydroorotate dehydrogenase (fumarate) (Leishmania major) (UniProt Q4QEW7); assay: Inhibition of recombinant oligo-histidine-tagged Leishmania major DHODH expressed in Escherichia coli BL21(DE3) cells at 100 uM using DHO as substrate measured after 60 secs
T2 sequence (whole entry): T1 sequence (Q4QEW7 whole entry)

[9] = system: Trypanosoma cruzi; assay: Antitrypanosomal activity against Trypanosoma cruzi trypomastigotes; type: functional, organism-based
[10] = target: T2, Dihydroorotate dehydrogenase (fumarate) (Leishmania major); assay: Binding affinity to Leishmania major DHODH assessed as change in melting temperature at 500 uM by differential scanning fluorimetry-based ThermoFMN assay
[11] = target: T2, Dihydroorotate dehydrogenase (fumarate) (Leishmania major); assay: Binding affinity to Leishmania major DHODH assessed as change in melting temperature at 1000 uM by SYPRO orange dye-based differential scanning fluorimetry
[12] = target: T2, Dihydroorotate dehydrogenase (fumarate) (Leishmania major); assay: Binding affinity to Leishmania major DHODH assessed as change in melting temperature at 100 uM by SYPRO orange dye-based differential scanning fluorimetry
[13] = target: T2, Dihydroorotate dehydrogenase (fumarate) (Leishmania major); assay: Binding affinity to Leishmania major DHODH assessed as change in melting temperature at 100 uM by differential scanning fluorimetry-based ThermoFMN assay
[14] = target: T2, Dihydroorotate dehydrogenase (fumarate) (Leishmania major); assay: Binding affinity to Leishmania major DHODH assessed as change in melting temperature at 1000 uM by differential scanning fluorimetry-based ThermoFMN assay
[15] = target: T2, Dihydroorotate dehydrogenase (fumarate) (Leishmania major); assay: Binding affinity to Leishmania major DHODH assessed as change in melting temperature at 500 uM by SYPRO orange dye-based differential scanning fluorimetry
[16] = system: Leishmania braziliensis; assay: Antileishmanial activity against Leishmania braziliensis H3227 MHOM/BR/94/H-3227 promastigotes after 72 hrs by MTT assay; type: functional, organism-based; details: H3227 MHOM/BR/94/H-3227, 72 h
[17] = system: Leishmania amazonensis; assay: Antileishmanial activity against Leishmania amazonensis WHOM/BR/75/Josefa amastigotes after 72 hrs by Neubauer chamber method; type: functional, organism-based
[18] = system: Leishmania amazonensis; assay: Antileishmanial activity against Leishmania amazonensis WHOM/BR/75/Josefa promastigotes after 72 hrs by Neubauer chamber method; type: functional, organism-based
[19] = system: Leishmania amazonensis; assay: Antileishmanial activity against Leishmania amazonensis promastigotes; type: functional, organism-based

COc1cc(/C=C/C(=O)O)ccc1O [FERULATE] was tested, and the IC50 [1] was 7.9 µM, the IC50 [2] was 428 µM and the IC50 [3] was 155 µM. The IC50 [4] was 155 µM, the IC50 [5] was 413 µM and the IC50 [6] was 1.7 µM.

In the case of O=c1c(O)c(-c2ccc(O)cc2)oc2cc(O)cc(O)c12 [KAEMPFEROL], the IC50 [2] is reported as 32.2 µM, the IC50 [3] is reported as 10.1 µM and the IC50 [4] is reported as 83.5 µM. For the same compound, the IC50 [5] was 389 µM.

O=C(/C=C/c1ccc(O)c(O)c1)O[C@H]1[C@H](O)C[C@](O)(C(=O)O)C[C@H]1OC(=O)/C=C/c1ccc(O)c(O)c1 gave an inhibition [7] of 10%, an inhibition [8] of 38% and an IC50 [5] of 73.2 µM. It also gave an IC50 [9] of 286 µM.

With C/C=C(/C)[C@@]1(O)O[C@H]2C[C@@]3(C)OC(=CC3=O)/C(C)=C\[C@H]3OC(=O)[C@@]1(C)[C@H]23 the IC50 [5] was 346 µM.

In the case of O=C(O)c1cc(=O)[nH]c(=O)[nH]1, the ΔTm [10] is reported as 4.32 °C, the ΔTm [11] is reported as 1.62 °C and the ΔTm [12] is reported as 0.39 °C. The ΔTm [13] was 1.29 °C, the ΔTm [14] was 6.12 °C and the ΔTm [15] was 1.43 °C.

In the case of C[C@@H]1O[C@@H](OC[C@H]2O[C@@H](Oc3c(-c4ccc(O)c(O)c4)oc4cc(O)cc(O)c4c3=O)[C@H](O)[C@@H](O)[C@@H]2O)[C@H](O)[C@H](O)[C@H]1O [RUTIN], the IC50 [1] is reported as 4.4 µM, the IC50 [2] is reported as 6.9 µM and the IC50 [3] is reported as 49.1 µM. It also gave an IC50 [4] of 49.1 µM and an IC50 [5] of 1530 µM.

With C=C1C(=O)O[C@@H]2/C=C(/C)C(=O)[C@@H]3O[C@H]3[C@](C)(O)C[C@@H](OC(=O)C(C)C)[C@@H]12 the IC50 [16] was 6 µM, the inhibition [7] was 12% and the inhibition [8] was 42%. The IC50 [5] was 103 µM.

In the case of C=C(C)C(=O)O[C@H]1C[C@@]2(C)OC(=CC2=O)[C@@H](C)C[C@H]2OC(=O)C(=C)[C@H]12, the ΔTm [10] is reported as -0.22 °C, the ΔTm [11] is reported as -0.45 °C and the ΔTm [12] is reported as -0.18 °C. The ΔTm [13] was -0.27 °C, the ΔTm [14] was -0.27 °C and the ΔTm [15] was -0.27 °C. For the same compound, the IC50 [5] was 145 µM.

In the case of C=C1CC[C@H]2[C@@](C)(CCC[C@@]2(C)C(=O)O)[C@@H]1CC/C(C)=C/C(=O)O, the IC50 [17] is reported as 47.4 to 50.8 µM, the IC50 [18] is reported as 83.7 to 111 µM and the IC50 [5] is reported as 707 µM.

In the case of C=C1C(=O)O[C@@H]2/C=C(\C)CC/C=C(/C=O)[C@@H](O)[C@@H](OC(=O)/C(C)=C\C)[C@@H]12, the ΔTm [10] is reported as -1.07 °C, the ΔTm [11] is reported as -0.07 °C and the ΔTm [12] is reported as -0.09 °C. The ΔTm [13] was -0.48 °C, the ΔTm [14] was -1.48 °C and the ΔTm [15] was -0.17 °C. The IC50 [5] was 644 µM.

O=C(O)/C=C/c1ccccc1O [O-COUMARIC ACID] showed an IC50 [1] of 13.8 µM, an IC50 [2] of 265 µM and an IC50 [3] of 36.6 µM. It also gave an IC50 [4] of 183 µM and an IC50 [5] of 806 µM.

Work on O=C(O)/C=C/c1ccc(O)c(O)c1 [CAFFEIC ACID] yielded an IC50 [1] of 16 µM, an IC50 [2] of 6.11 µM and an IC50 [3] of 31.1 µM. It also gave an IC50 [4] of 167 µM, an IC50 [5] of 1750 µM and an IC50 [6] of 5.2 µM.

For C=C1C(=O)O[C@@H]2/C=C(/C)C3=CC(=O)[C@@](C)(C[C@@H](OC(=O)/C(C)=C/C)[C@@H]12)O3 [ATRIPLICIOLIDTIGLATE], the ΔTm [10] was -0.85 °C, the ΔTm [11] was -5.97 °C and the ΔTm [12] was -0.47 °C. The ΔTm [13] was -0.35 °C, the ΔTm [14] was -1.21 °C and the ΔTm [15] was -2.52 °C. It also gave an IC50 [5] of 872 µM.

O=C(/C=C/c1ccc(O)c(O)c1)O[C@@H]1CC(O)(C(=O)O)C[C@@H](OC(=O)/C=C/c2ccc(O)c(O)c2)C1O (stereo partly specified) was tested, and the IC50 [5] was 1280 µM.

For C=C(C)C(=O)O[C@@H]1C[C@@](C)(O)[C@@H]2C(=O)C=C(C)[C@@H]2[C@H]2OC(=O)C(=C)[C@@H]21, the IC50 [5] was 168 µM.

O=c1c(O)c(-c2cc(O)c(O)c(O)c2)oc2cc(O)cc(O)c12 [MYRICETIN] showed an inhibition [7] of 41%, an inhibition [8] of 67% and an IC50 [2] of 50 µM. For the same compound, the IC50 [3] was 4.08 µM and the IC50 [4] was 94.3 µM.

Work on C=C1C(=O)O[C@@H]2/C=C(/C)C(=O)/C=C/[C@](C)(O)C[C@@H](OC(=O)C(C)C)[C@@H]12 [TAGITININ C] yielded an IC50 [16] of 9.2 µM and an IC50 [5] of 426 µM.

In the case of O=C(O)/C=C/c1ccccc1 [CINNAMIC ACID], the IC50 [2] is reported as 223 µM, the IC50 [19] is reported as 15.5 µM and the IC50 [3] is reported as 37.8 µM. It also gave an IC50 [4] of 203 µM and an IC50 [5] of 392 µM.

With O=C(O)c1ccc(O)c(O)c1 [PROTOCATECHUIC ACID] the IC50 [2] was 112 µM and the IC50 [5] was 922 µM.
